Data from patent publication US20090325959A1 (priority 2008, published 2009).
Where two headings read alike, the source gives them in different places.

Legend:
ROCK2 = target: T1, ROCK2 (Homo sapiens, UniProt O75116); experiment: Rho kinase inhibition assay (IMAP fluorescence polarization), ROCK2; type: biochemical;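 also: kinase reaction started with 10 µM ATP and run 60 min at room temperature, then phosphorylated substrate captured on IMAP beads for 30 min and fluorescence polarization read in mP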
T1 construct: purchased Upstate/Chemicon 14-451
T1 sequence (O75116 11-552 limits assumed): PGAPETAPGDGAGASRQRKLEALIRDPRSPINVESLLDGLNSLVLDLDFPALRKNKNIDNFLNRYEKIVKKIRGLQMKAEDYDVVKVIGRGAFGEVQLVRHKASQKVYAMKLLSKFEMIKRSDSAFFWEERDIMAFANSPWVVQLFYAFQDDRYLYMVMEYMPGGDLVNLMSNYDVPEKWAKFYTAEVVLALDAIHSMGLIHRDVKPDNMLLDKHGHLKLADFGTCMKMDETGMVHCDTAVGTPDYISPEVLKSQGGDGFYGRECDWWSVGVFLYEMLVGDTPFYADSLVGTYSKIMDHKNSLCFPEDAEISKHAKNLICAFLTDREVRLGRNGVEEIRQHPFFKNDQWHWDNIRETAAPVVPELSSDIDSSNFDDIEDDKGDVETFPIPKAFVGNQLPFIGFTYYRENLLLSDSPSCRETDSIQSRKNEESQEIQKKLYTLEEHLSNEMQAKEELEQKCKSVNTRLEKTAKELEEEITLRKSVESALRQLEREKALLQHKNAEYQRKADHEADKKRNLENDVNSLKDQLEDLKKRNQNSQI
Experimental: (§1) Following the pre-incubation, 10 μM ATP was added to initiate the reaction. After 60 minutes at room temperature, Molecular Devices IMAP™ binding solution was added to bind phosphorylated substrate. After 30 minutes of incubation in the presence of the IMAP™ beads, the fluorescence polarization was read and the ratio was reported as mP. IC50 values for compounds and EC50 values for ATP were calculated using the Prism software from Graphpad.

ROCK1 = target: T2, ROCK1 (Homo sapiens, UniProt Q13464); experiment: Rho kinase inhibition assay (IMAP fluorescence polarization), ROCK1; type: biochemical;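 also: kinase reaction run 60 min at room temperature, then phosphorylated substrate captured on IMAP beads for 30 min, with fluorescence polarization read in mP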
T2 construct: purchased Upstate/Chemicon 14-601
T2 sequence (Q13464 17-535 limits assumed): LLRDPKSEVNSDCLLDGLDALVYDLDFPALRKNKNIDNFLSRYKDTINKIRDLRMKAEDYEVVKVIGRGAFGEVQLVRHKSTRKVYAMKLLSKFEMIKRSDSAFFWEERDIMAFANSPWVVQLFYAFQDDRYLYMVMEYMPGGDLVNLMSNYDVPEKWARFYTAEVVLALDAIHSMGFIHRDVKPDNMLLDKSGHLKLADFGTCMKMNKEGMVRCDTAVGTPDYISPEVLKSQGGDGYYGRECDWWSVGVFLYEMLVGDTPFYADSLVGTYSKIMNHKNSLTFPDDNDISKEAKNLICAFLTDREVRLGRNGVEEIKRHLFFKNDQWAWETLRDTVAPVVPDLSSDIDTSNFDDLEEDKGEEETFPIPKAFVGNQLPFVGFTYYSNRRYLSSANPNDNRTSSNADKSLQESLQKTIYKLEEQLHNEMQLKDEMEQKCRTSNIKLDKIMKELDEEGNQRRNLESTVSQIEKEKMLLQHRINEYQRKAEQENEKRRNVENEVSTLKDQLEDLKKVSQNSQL
Experimental: as §1

[1] = 10 μM ATP, read-out: ROCK2 Ki, Avg

Row | SMILES | Ki (ROCK2; [1]) [nM] | Ki (ROCK1; Avg, 10 μM ATP) [nM] | Ki (ROCK2; average Ki, read-out: ROCK2 Ki) [nM] | Ki (ROCK1; average Ki) [nM]
1 | CC1(C)OC[C@H](COc2cccc(CN3CCC[C@H](Nc4ccc5[nH]ncc5c4)C3)c2)O1 [Compound 1.214, N-((S)-1-(3-(((S)-2,2-dimethyl-1,3-dioxolan-4-yl)methoxy)benzyl)piperidin-3-yl)-1H-indazol-5-amine] | 143 | 546 | – | –
2 | N#Cc1cccc(CN2CCC(Nc3cccc4cnccc34)C2)c1 (stereo not drawn) [Compound 2.007, 3-((3-(isoquinolin-5-ylamino)pyrrolidin-1-yl)methyl)benzonitrile] | 179 | 390 | – | –
3 | OCCCOc1cccc(CN2CCC[C@H](Nc3ccc4[nH]ncc4c3)C2)c1 [Compound 1.230, (S)-3-(3-((3-(1H-indazol-5-ylamino)piperidin-1-yl)methyl)phenoxy)propan-1-ol] | 35.3 | 346 | – | –
4 | CS(=O)(=O)c1ccc(CN2CCC[C@@H](Nc3ccc4[nH]ncc4c3)C2)cc1 [Compound 1.205, (R)-N-(1-(4-(methylsulfonyl)benzyl)piperidin-3-yl)-1H-indazol-5-amine] | 46.4 | 498 | – | –
5 | CS(=O)(=O)c1ccc(CN2CC[C@@H](Nc3ccc4[nH]ncc4c3)C2)cc1 [Compound 1.244, (R)-N-(1-(4-(methylsulfonyl)benzyl)pyrrolidin-3-yl)-1H-indazol-5-amine] | 139 | 683 | – | –
6 | COc1ccc(CN2CC[C@@H](Nc3cccc4cnccc34)C2)cc1NS(C)(=O)=O [Compound 2.098, (R)-N-(5-((3-(isoquinolin-5-ylamino)pyrrolidin-1-yl)methyl)-2-methoxyphenyl)methanesulfonamide] | 73.5 | 382 | – | –
7 | OCCn1cc(CN2CCC[C@@H](Nc3ccc4[nH]ncc4c3)C2)c2ccccc21 [Compound 1.273, (R)-2-(3-((3-(1H-indazol-5-ylamino)piperidin-1-yl)methyl)-1H-indol-1-yl)ethanol] | 8.2 | 31.3 | 8.2 | 31.3
8 | c1cc(N[C@@H]2CCN(Cc3nc4ccccc4[nH]3)C2)c2ccncc2c1 [Compound 2.074, (R)-N-(1-((1H-benzo[d]imidazol-2-yl)methyl)pyrrolidin-3-yl)isoquinolin-5-amine] | 36.4 | 133 | – | –
9 | COc1ccc(CN2CCC[C@H](Nc3ccc4[nH]ncc4c3)C2)cc1NS(C)(=O)=O [Compound 1.234, (S)-N-(5-((3-(1H-indazol-5-ylamino)piperidin-1-yl)methyl)-2-methoxyphenyl)methanesulfonamide] | 166 | 1740 | – | –
10 | Fc1ccc(CN2CC[C@@H](Nc3cccc4cnccc34)C2)cc1F [Compound 2.062, (R)-N-(1-(3,4-difluorobenzyl)pyrrolidin-3-yl)isoquinolin-5-amine] | 30.5 | 63.4 | – | –
11 | c1ccc(Cn2ccnc2CN2CCC[C@@H](Nc3ccc4[nH]ncc4c3)C2)cc1 [Compound 1.263, (R)-N-(1-((1-benzyl-1H-imidazol-2-yl)methyl)piperidin-3-yl)-1H-indazol-5-amine] | 453 | 2130 | – | –
12 | Cc1cccc(CN2CCC[C@@H](Nc3ccc4[nH]ncc4c3)C2)c1 [Compound 1.192, (R)-N-(1-(3-methylbenzyl)piperidin-3-yl)-1H-indazol-5-amine] | 37.7 | 158 | – | –
13 | O=S(=O)(Nc1cccc(CN2CCC[C@H](Nc3ccc4[nH]ncc4c3)C2)c1)N1CCCCC1 [Compound 1.270, (S)-N-(3-((3-(1H-indazol-5-ylamino)piperidin-1-yl)methyl)phenyl)piperidine-1-sulfonamide] | 9.9 | 130 | 9.9 | 130
14 | O=C(O)COc1cccc(CN2CCC[C@H](Nc3ccc4[nH]ncc4c3)C2)c1 [Compound 1.196, (S)-2-(3-((3-(1H-indazol-5-ylamino)piperidin-1-yl)methyl)phenoxy)acetic acid] | 39.8 | 711 | – | –
15 | Cc1ccc(CN2CC[C@@H](Nc3ccc4[nH]ncc4c3)C2)cc1 [Compound 1.242, (R)-N-(1-(4-methylbenzyl)pyrrolidin-3-yl)-1H-indazol-5-amine] | 17.5 | 71.4 | – | –
16 | O=C(COc1cccc(CN2CC[C@@H](Nc3cccc4cnccc34)C2)c1)N1CCOCC1 [Compound 2.043, (R)-2-(3-((3-(isoquinolin-5-ylamino)pyrrolidin-1-yl)methyl)phenoxy)-1-morpholinoethanone] | 21.5 | 49.4 | – | –
17 | FC(F)(F)c1cccc(CN2CC[C@@H](Nc3ccc4[nH]ncc4c3)C2)c1 [Compound 1.243, (R)-N-(1-(3-(trifluoromethyl)benzyl)pyrrolidin-3-yl)-1H-indazol-5-amine] | 84.3 | 219 | – | –
18 | CN(c1cccc(CN2CCC[C@H](Nc3ccc4[nH]ncc4c3)C2)c1)S(C)(=O)=O [Compound 1.198, (S)-N-(3-((3-(1H-indazol-5-ylamino)piperidin-1-yl)methyl)phenyl)-N-methylmethanesulfonamide] | 24.7 | 585 | – | –
19 | c1ccc(Cn2cc(CN3CCC[C@@H](Nc4ccc5[nH]ncc5c4)C3)c3ccccc32)cc1 [Compound 1.271, (R)-N-(11-((1-benzyl-1H-indol-3-yl)methyl)piperidin-3-yl)-1H-indazol-5-amine] | 77.7 | 332 | – | –

Row | SMILES | Ki (ROCK2; [1]) [nM] | Ki (ROCK1; Avg, 10 μM ATP) [nM] | Ki (ROCK2; average Ki, read-out: ROCK2 Ki) [nM] | Ki (ROCK1; average Ki) [nM]
20 | O=c1[nH]ccc2c(N[C@@H]3CCN(Cc4cccc(OCCO)c4)C3)cccc12 [Compound 2.092, (R)-5-(1-(3-(2-hydroxyethoxy)benzyl)pyrrolidin-3-ylamino)isoquinolin-1(2H)-one] | 458 | 1130 | – | –
21 | O=C(O)COc1cccc(CN2CC[C@@H](Nc3cccc4cnccc34)C2)c1 [Compound 2.044, (R)-2-(3-((3-(isoquinolin-5-ylamino)pyrrolidin-1-yl)methyl)phenoxy)acetic acid] | 24.1 | 81.4 | – | –
22 | Cc1ccc(CN2CC[C@@H](Nc3cccc4c[n+]([O-])ccc34)C2)cc1OCCO [Compound 2.080, (R)-5-(1-(3-(2-hydroxyethoxy)-4-methylbenzyl)pyrrolidin-3-ylamino)isoquinoline 2-oxide] | 126 | 214 | – | –
23 | c1cnc(CN2CC[C@@H](Nc3cccc4cnccc34)C2)nc1 [Compound 2.085, (R)-N-(1-(pyrimidin-2-ylmethyl)pyrrolidin-3-yl)isoquinolin-5-amine] | 812 | 2390 | – | –
24 | CCOc1cccc(CN2CCC[C@H](Nc3ccc4[nH]ncc4c3)C2)c1 [Compound 1.179, (S)-N-(1-(3-ethoxybenzyl)piperidin-3-yl)-1H-indazol-5-amine] | 19.3 | 292 | – | –
25 | FC(F)(F)c1cccc(CN2CC[C@@H](Nc3cccc4cnccc34)C2)c1 [Compound 2.049, (R)-N-(1-(3-(trifluoromethyl)benzyl)pyrrolidin-3-yl)isoquinolin-5-amlne] | 48 | 113 | – | –
26 | NCc1ccc(CN2CCC[C@H](Nc3ccc4[nH]ncc4c3)C2)cc1 [Compound 1.201, (S)-N-(1-(4-(aminomethyl)benzyl)piperidin-3-yl)-1H-indazol-5-amine] | 230 | 1590 | – | –
27 | c1cc(CN2CC[C@@H](Nc3cccc4cnccc34)C2)cc(C2CC2)c1 [Compound 2.020, (R)-N-(1-(3-cyclopropylbenzyl)pyrrolidin-3-yl)isoquinolin-5-amine] | 36.5 | 101 | – | –
28 | FC(F)(F)c1cccc(CN2CCC[C@@H](Nc3ccc4[nH]ncc4c3)C2)c1 [Compound 1.190, (R)-N-(1-(3-(trifluoromethyl)benzyl)piperidin-3-yl)-1H-indazol-5-amine] | 71.8 | 326 | – | –
29 | CN(c1cccc(CN2CCC[C@@H](Nc3ccc4[nH]ncc4c3)C2)c1)S(C)(=O)=O [Compound 1.207, (R)-N-(3-((3-(1H-indazol-5-ylamino)piperidin-1-yl)methyl)phenyl)-N-methylmethanesulfonamide] | 43.7 | 516 | – | –
30 | c1csc(CN2CC[C@@H](Nc3cccc4cnccc34)C2)c1 [Compound 2.090, (R)-N-(1-(thiophen-2-ylmethyl)pyrrolidin-3-yl)isoquinolin-5-amine] | 19.5 | 53.3 | – | –
31 | c1ccc(CN2CCC[C@H](Nc3cccc4cnccc34)C2)cc1 [Compound 2.050, (S)-N-(1-benzylpiperidin-3-yl)isoquinolin-5-amine] | 251 | 368 | – | –
32 | Cc1ccc(CN2CCC[C@H](Nc3ccc4[nH]ncc4c3)C2)cc1OCC(=O)O [Compound 1.240] | 60.1 | 625 | – | –
33 | OCCn1cc(CN2CC[C@@H](Nc3cccc4cnccc34)C2)c2ccccc21 [Compound 2.072, (R)-2-(3-((3-(isoquinolin-5-ylamino)pyrrolidin-1-yl)methyl)-1H-indol-1-yl)ethanol] | 4.4 | 7.5 | 4.4 | 7.5
34 | CC(=O)NCc1cccc(CN2CCC[C@@H](Nc3ccc4[nH]ncc4c3)C2)c1 [Compound 1.194] | 20.2 | 176 | – | –
35 | CS(=O)(=O)N1CCCc2cc(CN3CC[C@@H](Nc4cccc5cnccc45)C3)ccc21 [Compound 2.070, (R)-N-(1-((1-(methylsulfonyl)-1,2,3,4-tetrahydroquinolin-6-yl)methyl)pyrrolidin-3-yl)isoquinolin-5-amine] | 48.4 | 286 | – | –
36 | COc1ccc(CN2CC[C@@H](Nc3ccc4[nH]ncc4c3)C2)cc1 [Compound 1.245, (R)-N-(1-(4-methoxybenzyl)pyrrolidin-3-yl)-1H-indazol-5-amine] | 49.5 | 199 | – | –
37 | OC[C@@H](O)COc1cccc(CN2CCC[C@@H](Nc3ccc4[nH]ncc4c3)C2)c1 [Compound 1.115, (R)-3-(3-(((R)-3-(1H-indazol-5-ylamino)piperidin-1-yl)methyl)phenoxy)propane-1,2-diol] | 20.6 | 89.7 | – | –
38 | CSc1nccc(CN2CC[C@@H](Nc3cccc4cnccc34)C2)n1 [Compound 2.082, (R)-N-(1-((2-(methylthio)pyrimidin-4-yl)methyl)pyrrolidin-3-yl)isoquinolin-5-amine] | 9 | 132 | 9 | 132
